Experimental data as given in PMC11233931, “Remodeling tumor‐associated macrophage for anti‐cancer effects by rational design of irreversible inhibition of mitogen‐activated protein kinase‐activated protein kinase 2” (MedComm, 2024).

Columns and labels:
Experiment in all cases: Eurofins kinase selectivity profile against 380 other human recombinant kinases (Table S2)
Type in all cases: biochemical
[1] = biological target: T1, 380 human recombinant protein kinases (Homo sapiens, UniProt O95835); details: LATS1(h), read-out: Inhibition rate
T1 construct: purchased Eurofins (Celle Lévescault)
T1 sequence (O95835 1-1130): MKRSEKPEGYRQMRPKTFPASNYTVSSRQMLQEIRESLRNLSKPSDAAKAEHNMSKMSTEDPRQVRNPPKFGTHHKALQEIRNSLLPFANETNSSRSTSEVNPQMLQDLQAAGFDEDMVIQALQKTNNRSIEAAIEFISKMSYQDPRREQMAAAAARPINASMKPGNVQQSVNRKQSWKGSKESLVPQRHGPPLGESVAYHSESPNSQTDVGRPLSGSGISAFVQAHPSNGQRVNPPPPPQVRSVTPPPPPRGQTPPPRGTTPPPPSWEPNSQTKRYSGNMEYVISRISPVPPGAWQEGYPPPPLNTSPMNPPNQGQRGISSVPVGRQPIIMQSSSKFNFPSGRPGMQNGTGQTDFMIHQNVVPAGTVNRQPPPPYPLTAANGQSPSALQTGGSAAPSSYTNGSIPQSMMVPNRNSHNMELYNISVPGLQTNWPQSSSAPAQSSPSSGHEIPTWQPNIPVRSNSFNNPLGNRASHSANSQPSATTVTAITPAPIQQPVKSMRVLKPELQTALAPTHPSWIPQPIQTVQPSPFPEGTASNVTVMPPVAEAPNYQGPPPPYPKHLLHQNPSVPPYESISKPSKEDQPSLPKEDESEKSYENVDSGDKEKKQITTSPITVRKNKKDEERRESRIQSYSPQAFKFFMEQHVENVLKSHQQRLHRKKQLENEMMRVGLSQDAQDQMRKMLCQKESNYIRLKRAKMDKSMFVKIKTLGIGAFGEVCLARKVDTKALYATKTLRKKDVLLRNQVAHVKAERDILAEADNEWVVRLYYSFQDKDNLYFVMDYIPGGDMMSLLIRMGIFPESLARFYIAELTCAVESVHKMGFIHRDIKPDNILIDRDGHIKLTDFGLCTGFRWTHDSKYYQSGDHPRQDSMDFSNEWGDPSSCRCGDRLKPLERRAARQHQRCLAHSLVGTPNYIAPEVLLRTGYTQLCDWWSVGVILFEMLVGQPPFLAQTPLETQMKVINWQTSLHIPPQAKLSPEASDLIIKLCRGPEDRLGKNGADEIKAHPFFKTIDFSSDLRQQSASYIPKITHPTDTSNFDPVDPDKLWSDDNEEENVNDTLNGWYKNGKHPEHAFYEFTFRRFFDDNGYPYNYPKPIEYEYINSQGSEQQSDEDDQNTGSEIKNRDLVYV
Summary of the method: (§1)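 Profiling against 380 human recombinant kinases carried out by Eurofins at various compound concentrations.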

[2] = biological target: T2, 380 human recombinant protein kinases (Homo sapiens, UniProt P11362); details: FGFR1(h), read-out: Inhibition rate
T2 construct: purchased Eurofins (Celle Lévescault)
Summary of the method: as §1

[3] = biological target: T3, 380 human recombinant protein kinases (Homo sapiens, UniProt P51817); details: PrKX(h), read-out: Inhibition rate
T3 construct: purchased Eurofins (Celle Lévescault)
T3 sequence (P51817 1-358): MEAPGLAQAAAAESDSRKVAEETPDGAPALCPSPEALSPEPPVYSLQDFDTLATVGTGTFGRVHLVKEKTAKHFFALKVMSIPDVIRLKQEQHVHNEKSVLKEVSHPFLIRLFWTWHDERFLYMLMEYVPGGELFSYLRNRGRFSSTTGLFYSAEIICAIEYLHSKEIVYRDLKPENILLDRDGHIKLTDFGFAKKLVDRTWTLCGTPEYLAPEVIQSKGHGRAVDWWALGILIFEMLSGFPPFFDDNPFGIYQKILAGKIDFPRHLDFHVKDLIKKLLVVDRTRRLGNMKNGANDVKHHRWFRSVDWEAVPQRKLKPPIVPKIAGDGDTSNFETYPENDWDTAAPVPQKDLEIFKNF
Summary of the method: as §1

[4] = biological target: T4, 380 human recombinant protein kinases (Homo sapiens, UniProt Q9BYT3); details: STK33(h), read-out: Inhibition rate (%)
T4 construct: purchased Eurofins (Celle Lévescault)
Summary of the method: as §1

T2 sequence (P11362 22-822): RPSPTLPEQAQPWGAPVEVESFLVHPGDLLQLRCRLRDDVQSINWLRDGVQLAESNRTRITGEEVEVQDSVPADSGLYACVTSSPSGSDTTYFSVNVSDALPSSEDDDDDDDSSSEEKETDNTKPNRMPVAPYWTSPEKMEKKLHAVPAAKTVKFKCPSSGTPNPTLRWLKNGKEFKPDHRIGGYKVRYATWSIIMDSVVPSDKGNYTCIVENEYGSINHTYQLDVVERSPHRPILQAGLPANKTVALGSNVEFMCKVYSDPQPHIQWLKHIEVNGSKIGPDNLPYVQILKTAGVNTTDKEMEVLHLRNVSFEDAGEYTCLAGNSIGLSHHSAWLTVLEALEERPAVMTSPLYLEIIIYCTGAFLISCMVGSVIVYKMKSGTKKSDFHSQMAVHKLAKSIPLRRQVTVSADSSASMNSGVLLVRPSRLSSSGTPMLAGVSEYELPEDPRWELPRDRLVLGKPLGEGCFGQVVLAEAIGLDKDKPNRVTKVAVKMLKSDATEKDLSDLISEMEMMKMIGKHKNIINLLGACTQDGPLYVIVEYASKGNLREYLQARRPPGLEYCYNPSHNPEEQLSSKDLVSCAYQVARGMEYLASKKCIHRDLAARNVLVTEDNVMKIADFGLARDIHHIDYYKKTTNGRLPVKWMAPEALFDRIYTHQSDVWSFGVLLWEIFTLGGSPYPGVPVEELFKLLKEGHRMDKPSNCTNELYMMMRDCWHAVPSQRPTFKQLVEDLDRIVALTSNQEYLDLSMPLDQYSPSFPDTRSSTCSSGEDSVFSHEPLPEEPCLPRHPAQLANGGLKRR
T4 sequence (Q9BYT3 whole entry): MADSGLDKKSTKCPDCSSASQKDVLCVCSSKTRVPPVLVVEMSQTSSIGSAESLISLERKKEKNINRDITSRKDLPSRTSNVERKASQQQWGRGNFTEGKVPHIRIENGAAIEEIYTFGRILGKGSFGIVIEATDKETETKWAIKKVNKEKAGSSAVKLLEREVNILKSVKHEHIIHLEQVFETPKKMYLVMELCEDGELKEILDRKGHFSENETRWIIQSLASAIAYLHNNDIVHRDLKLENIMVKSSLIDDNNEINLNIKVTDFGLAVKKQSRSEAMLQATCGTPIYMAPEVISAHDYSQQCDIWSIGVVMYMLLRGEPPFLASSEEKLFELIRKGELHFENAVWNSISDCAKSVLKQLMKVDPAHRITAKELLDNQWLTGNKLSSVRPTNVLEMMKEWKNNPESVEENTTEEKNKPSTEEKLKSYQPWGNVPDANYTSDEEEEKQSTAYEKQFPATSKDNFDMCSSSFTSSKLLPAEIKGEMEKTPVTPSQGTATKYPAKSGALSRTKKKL

Q: For `C=CC(=O)Nc1cc(-c2cc(-c3cc4c([nH]3)CCNC4=O)ccn2)ccc1OC(F)(F)F` [compound 11], which inhibition at 0.01 µM ([1]; 10 nM) is on record?
A: -11%

Q: What about the inhibition at 0.1 µM ([1]; 100 nM) of the same molecule?
A: -3%

Q: And the inhibition at 1 µM ([1]; 1000 nM)?
A: 1%

Q: And the inhibition at 0.01 µM ([2]; 10 nM)?
A: -2%

Q: And the inhibition at 0.1 µM ([2]; 100 nM)?
A: 6%

Q: And the inhibition at 1 µM ([2]; 1000 nM)?
A: 7%

Q: What about the inhibition at 0.01 µM ([3]; 10 nM) of the same molecule?
A: 3%

Q: What about the inhibition at 0.1 µM ([3]; 100 nM) of the same molecule?
A: 12%

Q: And the inhibition at 1 µM ([3]; 1000 nM)?
A: 11%

Q: What about the inhibition at 0.01 µM ([4]; 10 nM) of the same molecule?
A: 8%

Q: What about the inhibition at 0.1 µM ([4]; 100 nM) of the same molecule?
A: 18%

Q: What about the inhibition at 1 µM ([4]; 1000 nM) of the same molecule?
A: 64%
